Test results published in US20220133738A1, “GENOTYPE AND DOSE-DEPENDENT RESPONSE TO AN ASBTI IN PATIENTS WITH BILE SALT EXPORT PUMP DEFICIENCY” (MIRUM PHARMACEUTICALS, INC., priority 2019, published 2022).

Test system: overweight and obese adults
Assay: Dose-ranging phase 1 clinical study (NCT02475317): fecal bile acid excretion with maralixibat and volixibat
Type: in vivo, human
Settings: for fBA excretion, mean change from baseline: baseline to day 6 and 7

CCCC[C@]1(CC)CS(=O)(=O)c2ccc(N(C)C)cc2[C@@H](c2cccc(NC(=O)N[C@@H]3O[C@H](COS(=O)(=O)O)[C@@H](O)[C@H](OCc4ccccc4)[C@H]3O)c2)[C@H]1O [volixibat]
fBA excretion, mean change from baseline (10 mg dose (QD), 7 days): 744 µmol
fBA excretion, mean change from baseline (20 mg dose (QD), 7 days): 874 µmol
fBA excretion, dose dependence (across tested doses, 7 days): increased in a dose-dependent manner
treatment-emergent adverse events (all doses, 7 days): mild, and none were serious
Mean serum 7αC4 (baseline to day 7, greatest change at maralixibat 50 mg BID): increased
Mean sBA levels (day 7 versus baseline): not elevated
